For assay [1], the system named is beet armyworm (Spodoptera exigua). Briefly: Insecticidal test on treated lepidopteran diet, beet armyworm. Type of assay: in vivo. The conditions noted are these: 120 h, second-instar larvae on treated diet, 8 wells, dose of 50 mg/cm^2 [sic] (2000 ppm, 50 μL), dead insects counted 5 days after treatment, read-out: AVG LAPHEG 50 (percent control, beet army worm). As for the experimental part:
(§1) The compounds identified in Table 1 were prepared according to the previous methods and were tested against beet armyworm and corn earworm as follows:
(§2) Insecticidal Test for Corn Earworm (Helicoverpa zea) and Beet Armyworm (Spodoptera exigua).
(§3) To prepare test solution, the test compound was formulated at 2000 ppm solution as 4 mg/2 mL of 9 acetone:1 tap water. 50 μL of the 2000 ppm (equivalent to 50 μg/cm^2 dose on diet surface area) test solution was pipetted upon the surface of 1 mL of lepidopteran diet (Southland Multi-Species Lepidopteran Diet) contained in each of eight wells per insect species (one well=1 replication). A second-instar corn earworm and beet armyworm was placed upon the treated diet in each well once the solvent had air-dried. Trays containing the treated diet and larvae were covered and then held in a growth chamber at 25° C., 50-55% RH, and 16 hr light:8 hr dark for 5 days. Observation were conducted 5 days after treatment and infestation. The number of dead insects of 8 per species per treatment was then determined and the results are given in Table 1 as a percent control at a dose of […].
(§4) Keys to the table: Mass spectral data were obtained using liquid chromatography mass spectroscopy (LC-MS). The masses are detected using electrospray ionization (ESI) and reported as Mol Ion (M+H, M−H); AVG LAPHEG 50 refers to activity against beet army worm (Spodoptera exigua) as defined above; AVG HELIZE 50 refers to activity against corn ear worm (Helicoverpa zea) as described above.

Assay [2] relates to corn earworm (Helicoverpa zea). Description: Insecticidal test on treated lepidopteran diet, corn earworm. Type of assay: in vivo. The following applies: 120 h; second-instar larvae on treated diet, 8 wells; dose of 50 mg/cm^2 [sic] (2000 ppm, 50 μL); dead insects counted 5 days after treatment; read-out: AVG HELIZE 50 (percent control, corn ear worm). As for the experimental part:
as §1, §2, §3, §4

For the compound `Fc1ccc(Nc2nc(NCc3ccc(Cl)nc3)nc(N/N=C/c3ccc(C(F)(F)F)cc3)n2)cc1C(F)(F)F` [Compound 65], the pest or weed control at 2000 µg/mL in assay [1] and in assay [2] was 100% in each case.

Consider `CC1CN(c2nc(N/N=C/c3ccc(OC(F)(F)F)cc3)nc(Nc3ccc(F)c(C(F)(F)F)c3)n2)CC(C)O1` (stereo not drawn) [Compound 46], for which the pest or weed control at 2000 µg/mL in assay [1] and in assay [2] was 100% throughout.

As to `FC(F)(F)Oc1ccc(/C=N/Nc2nc(Nc3cccc(C(F)(F)F)c3)nc(N3CCOCC3)n2)cc1` [Compound 62], the pest or weed control at 2000 µg/mL in assay [1] and in assay [2] was 100% throughout.

With `Fc1ccc(Nc2nc(N/N=C/c3ccc(OC(F)(F)F)cc3)nc(N3CCOCC3)n2)cc1C(F)(F)F` [Compound 54], the pest or weed control at 2000 µg/mL in assay [1] and in assay [2] was 100% throughout.

As to `CC1CN(c2nc(N/N=C/c3cc(F)cc(C(F)(F)F)c3)nc(Nc3ccc(F)c(C(F)(F)F)c3)n2)CC(C)O1` (stereo not drawn) [Compound 47], the pest or weed control at 2000 µg/mL in assay [1] turned out to be 100%; in assay [2] it was 75%.

Take `FC(F)(F)Oc1ccc(Nc2nc(N/N=C/c3ccccc3OC(F)(F)F)nc(N3CCOCC3)n2)cc1` [Compound 45]: the pest or weed control at 2000 µg/mL in assay [1] is 38%; in assay [2] it was 13%.

As to `O=C1CN(c2nc(N/N=C/c3ccc(OC(F)(F)F)cc3)nc(Nc3ccc(OC(F)(F)F)cc3)n2)CCN1` [Compound 6], the pest or weed control at 2000 µg/mL in assay [1] and in assay [2] was 100% in each case.

Regarding `N#Cc1ccc(/C=N/Nc2nc(NCc3ccc(Cl)nc3)nc(Nc3ccc(OC(F)(F)C(F)F)cc3)n2)cc1` [Compound 96], the pest or weed control at 2000 µg/mL in assay [1] and in assay [2] was 100% in each case.

On to `Fc1cc(C(F)(F)F)ccc1Nc1nc(N/N=C/c2cccc(OC(F)(F)C(F)F)c2)nc(N2CCOCC2)n1` [Compound 81], for which the pest or weed control at 2000 µg/mL in assay [1] and in assay [2] was 100% each time.

Regarding `FC(F)C(F)(F)Oc1ccc(Nc2nc(NCc3ccc(Cl)nc3)nc(N/N=C/c3ccc(Cl)c(Cl)c3)n2)cc1` [Compound 94], the pest or weed control at 2000 µg/mL in assay [1] and in assay [2] was 100% in each case.

In the case of `Fc1ccc(Nc2nc(NCc3ccc(Cl)nc3)nc(N/N=C/c3ccccc3Cl)n2)cc1C(F)(F)F` [Compound 72], the pest or weed control at 2000 µg/mL in assay [1] stood at 0%; in assay [2] it was 25%.

For `COc1ccc(CNc2nc(N/N=C/c3ccc(OC(F)(F)F)cc3)nc(Nc3ccc(F)c(C(F)(F)F)c3)n2)cn1` [Compound 82], the pest or weed control at 2000 µg/mL in assay [1] and in assay [2] was 100% each time.

Regarding `FC(F)(F)COc1nc(N/N=C/c2ccccc2C(F)(F)F)nc(Nc2ccc(OC(F)(F)F)cc2)n1` [Compound 32], the pest or weed control at 2000 µg/mL in assay [1] and in assay [2] was 100% in each case.

On to `CCNc1nc(N/N=C/c2ccc(OC(F)(F)F)cc2)nc(Nc2ccc(OC(F)(F)F)cc2)n1` [Compound 16], for which the pest or weed control at 2000 µg/mL was 13% in assay [1] and 0% in assay [2].

Take `CCOCCNc1nc(N/N=C/c2ccc(OC(F)(F)F)cc2)nc(Nc2ccc(OC(F)(F)F)cc2)n1` [Compound 25]: the pest or weed control at 2000 µg/mL in assay [1] and in assay [2] was 100% in each case.

Regarding `O=C1CN(c2nc(N/N=C/c3cccc(C(F)(F)F)c3)nc(Nc3ccc(OC(F)(F)F)cc3)n2)CCN1` [Compound 7], the pest or weed control at 2000 µg/mL in assay [1] and in assay [2] was 100% in each case.

For the compound `FC(F)(F)Oc1ccc(Nc2nc(N/N=C/c3cccc(Br)c3)nc(N3CCOCC3)n2)cc1` [Compound 38], the pest or weed control at 2000 µg/mL in assay [1] was 0%; in assay [2] it was 100%.

Consider `Fc1ccc(Nc2nc(N/N=C/c3cccc(OC(F)(F)C(F)F)c3)nc(N3CCOCC3)n2)cc1C(F)(F)F` [Compound 53], for which the pest or weed control at 2000 µg/mL in assay [1] and in assay [2] was 100% in each case.

The record behind these values is patent US8188273B2, “Insecticidal (1,3,5)-triazinyl phenyl hydrazones” (Dow AgroSciences, LLC., priority 2007, dated 2012).
